Counter-ions that a name gives are not always drawn.
Test system: Arabidopsis thaliana wild-type
Assay: Hypocotyl growth assay under reduced light
Type: in vivo
Settings: hypocotyl, 100 μM; for New length (cm) / New Length: three days; for New length (cm): trials 1, 2, 3 and SAM each with own DMSO control; for New Length: in cm
From the text: Arabidopsis thaliana wild-type seeds were from laboratory stocks of Columbia (Col-0) and Landsberg erecta (Ler-0) accessions. Arabidopsis thaliana is a dicot. The mutants of gid1 (J. Griffiths, et al., Plant Cell, 2006, 18, 3399-3414) were obtained from Dr. Steve Thomas (Rothamsted Research, UK) and were in a Col-0 background, whilst the della quintuple mutant (S. H. Feng et al. Nature, 2008, 451: 475-479) and ga1-5 (I. Fridborg et al. Plant Cell, 1999, 11: 1019-1031) were in a Ler-0 background and was obtained from the Nottingham Arabidopsis Stock Centre (NASC). The A. thaliana line expressing RGA-GFP (A. L. Silverstone et al. The Plant Cell, 2001, 13: 1555-1565), Col-0 background was obtained from Prof. Keith Lindsey (Durham University, UK). Seeds were plated out 1×MS medium pH 5.8 (T. Murashige and F. Skoog (1962) Physiologia Plantarum 15: 473-497) in petri dishes with a concentration of either 0.8% or 1.2% (w/v) phytoagar for root and hypocotyl measurements, respectively. After sowing seeds were stratified on plates at 4° C. for a minimum of 48 h to achieve synchronous germination. Seedlings were grown for either 7 or 2 days for root and hypocotyl measurements, respectively, prior to treatment with chemicals. For hypocotyl measurements, seeds were sown on nylon mesh (acid resistant monofilament nylon filter mesh fabric; GZ, model number H20M). Seedling were grown in a Percival (CU-36L5D, CLF plant climatics, Emersacker, Germany) with a photoperiod of 16/8 h with a light intensity of either 150 μmol m^2 s^−1 or 50 μmol m^2 s^−1 for root and hypocotyl measurements, respectively, and a temperature of 20±1° C.
After growing as described above seedlings for root assays were transferred to 1.2% (w/v) agar plates containing each chemical at a final concentration of 100 μM (the addition of the chemicals was performed when media had cooled to 50° C. after autoclaving), with an equivalent concentration of DMSO as control. At this stage the positions of the root tips were marked on the petri dish. The plants were subsequently grown vertically and after a further 5 days images of the plates were scanned and the root growth that occurred during the 5 days on chemicals was measured using ImageJ software. 18 seedlings were measured for each treatment. For hypocotyl measurements the assay performed was adapted from de Lucas et al. (2008, supra). After growing seedlings as described above, the nylon mesh was transferred across to the plates containing chemical. The plants were then placed in vertical orientation for three days under reduced light intensity (by covering plates with 2 layers of 80 g·m^2 white paper) before the plates were scanned. The measurement of hypocotyl was done using ImageJ software. At least 15 seedlings were measured for each plate.
To determine the mechanism of A1 action via the GA/DELLA signaling pathway, the response of A1 in a series of GA synthesis/signalling mutants was investigated. For these assays the focus was on hypocotyl growth, because it is well established that DELLA can inhibit the binding of PIFs to their target promoter leading to a reduction in GA-regulated hypocotyl growth (A. Castillon, H. Shen and E. Huq (2007) Trends in Plant Science, 12: 514-521.; de Lucas et al. 2008, supra; S. H. Feng et al. 2008, supra. To establish the use of A1 in this assay, hypocotyl growth was first tested by growing the seedlings on agar plates containing A1, with GA and PAC used as positive and negative controls, respectively, for three days in reduced light conditions to achieve a balance between maximum and minimum hypocotyl growth. […] Having established the hypocotyl assay, DELLA-dependence of the A1 effect was then confirmed genetically. To test this, a mutant line that lacks all DELLA (GAI, RGA, RGL1, RGL2 and RGL3) function was used.
The effect of additional compounds on hypocotyl growth was investigated using the same methods as described above (100 μM of each compound was used). […]

[1] = relative to the DMSO control of the same trial

SMILES	New length (cm)	Relative growth (cm) [1]	New Length	Relative growth (cm) (relative to DMSO control)
CCOCCOc1ccc(S(=O)(=O)NCCN)c2ccccc12.Cl [JAR145, N-(2′-aminoethyl)-4-(2″-ethoxyethoxy)naphthalene-1-sulfonamide Hydrogen Chloride]	0.6424	0.5965	–	–
CNc1ccc(S(=O)(=O)NCCN)c2nonc12.Cl [JAR143, 7-(methylamino)-N-(2′-aminoethyl)-2,1,3-benzoxadiazole-4-sulfonamide Hydrogen Chloride]	0.2847	−0.2925	–	–
Cl.NCCNS(=O)(=O)c1ccc(-c2ccccc2)cc1 [JAR479, N-(2′-aminoethyl)-[1,1″-biphenyl]-4-sulfonamide Hydrochloride]	–	–	0.7771	0.1335
CC(C)(C)c1ccc(S(=O)(=O)NCCN)cc1 [JAR484, N-(2′-aminoethyl)-4-tent-butylbenzene-1-sulfonamide Hydrochloride]	–	–	0.8713	0.271
NCCNS(=O)(=O)c1cccc(F)c1 [JAR478, N-(2-aminoethyl)-3-fluorobenzene-1-sulfonamide Hydrochloride]	–	–	0.8424	0.2289
CNCCNS(=O)(=O)c1cccc2ccccc12 [JAR493, N-[2′-(methylamino)ethyl]naphthalene-1-sulfonamide Hydrochloride]	–	–	0.897	0.3085
NCCNS(=O)(=O)c1cccc2cccnc12 [JAR13, N-(2′-aminoethyl)quinoline-8-sulfonamide]	0.212	−0.09787	–	–
CCOC(=O)C(C)N(CCN)S(=O)(=O)c1cccc2ccccc12.Cl (stereo not drawn) [SAM4, ethyl 2-[N-(2-azaniumylethyl)naphthalene-1-sulfonamido]propanoate Chloride]	0.228	0.1574	–	–
NCCNS(=O)(=O)c1ccccc1F [JAR480, N-(2′-aminoethyl)-2-fluorobenzene-1-sulfonamide Hydrochloride]	–	–	0.8424	0.2289
CCOCCOc1c(Cl)cc(S(=O)(=O)NCCN)c2ccccc12.Cl [JAR141, N-(2-azaniumylethyl)-3-chloro-4-(2-ethoxyethoxy)naphthalene-1-sulfonamide Chloride]	0.4387	0.09026	–	–
CCOC(=O)CN(CCN)S(=O)(=O)c1cccc2ccccc12.Cl [SAM3, ethyl 2″-[N-(2′-aminoethyl)naphthalene-1-sulfonamido]acetate Hydrogen Chloride]	0.272	0.3807	–	–
CCOCCOc1ccc2ccccc2c1S(=O)(=O)NCCN.Cl [JAR144, N-(2′-aminoethyl)-2-(2″-ethoxyethoxy)naphthalene-1-sulfonamide Hydrogen Chloride]	0.6007	0.4927	–	–
C=CCN(CCN)S(=O)(=O)c1cccc2ccccc12.Cl [SAM1, N-(2′-aminolethyl)-N-(prop-2″-en-1′-yl)naphthalene-1-sulfonamide Hydrogen Chloride]	0.193	−0.0203	–	–
NCCCNS(=O)(=O)c1cccc2ccccc12 [JAR481, N-(3′-aminopropyl)naphthalene-1-sulfonamide Hydrochloride]	–	–	0.8072	0.1775
CCCCCCOc1ccc(S(=O)(=O)NCCN)cc1.Cl [JAR72, N-(2′-aminoethyl)-4-hexoxybenzene-1-sulfonamide Hydrogen Chloride]	0.195	−0.1909	–	–
CCCCCOc1ccc(S(=O)(=O)NCCN)c2ccccc12.Cl [JAR70, N-(2′-aminoethyl)-4-pentoxynaphthalene-1-sulfonamide Hydrogen Chloride]	0.173	−0.2822	–	–

SMILES	New length (cm)	Relative growth (cm) [1]	New Length	Relative growth (cm) (relative to DMSO control)
COc1ccc(S(=O)(=O)NCCN)c2ccccc12.Cl [JAR33, N-(2′-aminoethyl)-4-methoxynaphthalene-1-sulfonamide Hydrogen Chloride]	0.2986	0.2705	–	–
COc1ccc(S(=O)(=O)NCCN)cc1.Cl [JAR71, N-(2′-aminoethyl)-4-methoxybenzene-1-sulfonamide Hydrogen Chloride]	0.331	0.3734	–	–
Cl.NCCN(Cc1ccccc1)S(=O)(=O)c1cccc2ccccc12 [SAM2, N-(2′-aminoethyl)-N-benzylnaphthalene-1-sulfonamide Hydrogen Chloride]	0.191	−0.03046	–	–
NCCNS(=O)(=O)c1ccc([N+](=O)[O-])cc1 [JAR483, N-(2′-aminoethyl)-4-nitrobenzene-1-sulfonamide Hydrochloride]	–	–	0.8707	0.2701
COc1ccccc1S(=O)(=O)NCCN.Cl [JAR69, N-(2′-aminoethyl)-2-methoxybenzene-1-sulfonamide Hydrogen Chloride]	0.316	0.3112	–	–
Cl.NCCNS(=O)(=O)c1cccc2ccncc12 [JAR31, N-(2′-aminoethyl)isoquinoline-8-sulfonamide Hydrogen Chloride]	0.274	0.166	–	–
Cl.NCCNS(=O)(=O)c1cccc2cnccc12 [JAR32, N-(2′-aminoethyl)isoquinoline-5-sulfonamide Hydrogen Chloride]	0.202	–	–	–
Cl.NCCNS(=O)(=O)C1CCCCC1 [JAR488, N-(2′-aminoethyl)cyclohexanesulfonamide Hydrochloride]	–	–	0.668	−0.02555
COc1cccc(S(=O)(=O)NCCN)c1.Cl [JAR490, N-(2′-aminoethyl)-3-methoxybenzene-1-sulfonamide Hydrochloride]	–	–	0.8299	0.2107
CCCCCCOc1ccccc1S(=O)(=O)NCCN.Cl [JAR73, N-(2′-aminoethyl)-2-hexoxybenzene-1-sulfonamide Hydrogen Chloride]	0.202	−0.1618	–	–
Cl.NCCNS(=O)(=O)c1ccc2c3c(cccc13)C(=O)N2 [JAR67, N-(2′-aminoethyl)-1,8-naphtholactam-5-sulfonamide Hydrogen Chloride]	0.187	−0.2241	–	–
CCCc1ccc(S(=O)(=O)NCCN)cc1 [JAR489, N-(2-aminoethyl)-4-propylbenzene-1-sulfonamide]	–	–	0.9133	0.3323
Cl.NCCNS(=O)(=O)c1cccc2ncccc12 [JAR30, N-(2′-aminoethyl)-quinoline-5-sulfonamide Hydrogen Chloride]	0.333	0.417	–	–
CCCCCOc1ccc2ccccc2c1S(=O)(=O)NCCN.Cl [JAR68, N-(2′-aminoethyl)-2-pentoxynaphthalene-1-sulfonamide Hydrogen Chloride]	0.197	−0.1826	–	–
Cc1ccc(S(=O)(=O)NCCN)cc1.Cl [JAR142, 4-methyl-N-(2′-aminoethyl)benzene-1-sulfonamide Hydrogen Chloride]	0.5868	0.4584	–	–
O=S(=O)(NCCO)c1cccc2ccccc12 [JAR88, N-(2-hydroxyethyl)naphthalene-1-sulfonamide]	0.2827	−0.2975	–	–

From patent US20240130367A1, “PLANT GROWTH PROMOTERS” (University of Durham, priority 2020, published 2024)
